No end group written: not given here.
Tests used:
[1] = test system: EA.hy926 cells; test: SOD activity in H2O2-damaged cells; assay type: cell-based
Experimental: (§1) The activities of SOD and GSH-Px were assessed as follows. EA.hy926 cells were seeded in 6-well plates at 4 × 10^5 cells per well and cultured overnight. After attachment, the cells were serum-starved in high-glucose DMEM containing 1% FBS for 12 h, and then treated for 24 h with peptide solutions at the indicated concentrations or with captopril. […] After treatment, the cells were washed with ice-cold PBS, lysed on ice, and centrifuged to collect the supernatants. SOD and GSH-Px activities were measured spectrophotometrically at 550 nm and 412 nm, respectively, using a microplate reader. Enzyme activities were calculated, normalized to total protein content, and expressed as U/mg protein.

[2] = test system: EA.hy926 cells; test: GSH-Px activity in H2O2-damaged cells; assay type: cell-based
Experimental: as §1

[3] = test system: EA.hy926 cells; test: Wound healing assay (Ang II-induced migration); assay type: cell-based
Experimental: The effect of peptides on endothelial cell migration was evaluated using a wound healing assay. Briefly, EA.hy926 cells were seeded into 6-well plates and cultured at 37 °C in a humidified atmosphere containing 5% CO2. When the cells reached full confluence, they were treated with 1 μmol/L Ang II for 12 h to induce endothelial dysfunction. Subsequently, a straight scratch was created across the cell monolayer using a sterile 200 μL pipette tip. Detached cells were gently removed by rinsing with PBS, leaving a clear cell-free wound area. To minimize proliferation interference, cells were then incubated in high-glucose DMEM containing 1% FBS, supplemented with different concentrations of the peptides or captopril. Images of the same wound area were captured at 0 h, 6 h, and 24 h using a fluorescence microscope (Axio Observer, Zeiss, Jena, Germany), and the wound area was quantified using ImageJ software (version 1.54g).

[4] = test system: EA.hy926 cells; test: ET-1 level in Ang II-stimulated cells (ELISA); assay type: cell-based
Experimental: (§2) To evaluate the effect of the peptide on endothelial function, NO and ET-1 levels were measured in this study. Briefly, EA.hy926 cells were seeded in 6-well plates at a density of 4 × 10^5 cells/well and allowed to adhere overnight. After removing the medium, cells were incubated with 1 μmol/L Ang II for 12 h to induce endothelial dysfunction. Subsequently, the peptide solutions at different concentrations (0.1, 0.2, and 0.4 mg/mL) or the captopril solutions were added, and the cells were incubated for an additional 24 h. For the blank control group, the cells received no treatment. After incubation, the culture supernatants were collected and centrifuged to remove debris. Both NO and ET-1 contents in the supernatants were quantified using commercial kits according to the manufacturer’s protocols. NO content was determined using the Griess reaction (OD = 550 nm), and ET-1 levels were measured via enzyme-linked immunosorbent assay (ELISA) (OD = 450 nm). Absorbance values were recorded at the corresponding wavelengths using a microplate reader (Spark 10M, Tecan, Männedorf, Switzerland).

[5] = test system: EA.hy926 cells; test: NO level in Ang II-stimulated cells (Griess); assay type: cell-based
Experimental: as §2

[6] = target: T1, Angiotensin-converting enzyme (ACE) (Oryctolagus cuniculus, UniProt P12822); test: In vitro ACE-inhibitory activity (HHL substrate, HPLC of hippuric acid); assay type: biochemical; settings: tested at 0.5 mg/mL, p < 0.05
T1 sequence (P12822 34-1310): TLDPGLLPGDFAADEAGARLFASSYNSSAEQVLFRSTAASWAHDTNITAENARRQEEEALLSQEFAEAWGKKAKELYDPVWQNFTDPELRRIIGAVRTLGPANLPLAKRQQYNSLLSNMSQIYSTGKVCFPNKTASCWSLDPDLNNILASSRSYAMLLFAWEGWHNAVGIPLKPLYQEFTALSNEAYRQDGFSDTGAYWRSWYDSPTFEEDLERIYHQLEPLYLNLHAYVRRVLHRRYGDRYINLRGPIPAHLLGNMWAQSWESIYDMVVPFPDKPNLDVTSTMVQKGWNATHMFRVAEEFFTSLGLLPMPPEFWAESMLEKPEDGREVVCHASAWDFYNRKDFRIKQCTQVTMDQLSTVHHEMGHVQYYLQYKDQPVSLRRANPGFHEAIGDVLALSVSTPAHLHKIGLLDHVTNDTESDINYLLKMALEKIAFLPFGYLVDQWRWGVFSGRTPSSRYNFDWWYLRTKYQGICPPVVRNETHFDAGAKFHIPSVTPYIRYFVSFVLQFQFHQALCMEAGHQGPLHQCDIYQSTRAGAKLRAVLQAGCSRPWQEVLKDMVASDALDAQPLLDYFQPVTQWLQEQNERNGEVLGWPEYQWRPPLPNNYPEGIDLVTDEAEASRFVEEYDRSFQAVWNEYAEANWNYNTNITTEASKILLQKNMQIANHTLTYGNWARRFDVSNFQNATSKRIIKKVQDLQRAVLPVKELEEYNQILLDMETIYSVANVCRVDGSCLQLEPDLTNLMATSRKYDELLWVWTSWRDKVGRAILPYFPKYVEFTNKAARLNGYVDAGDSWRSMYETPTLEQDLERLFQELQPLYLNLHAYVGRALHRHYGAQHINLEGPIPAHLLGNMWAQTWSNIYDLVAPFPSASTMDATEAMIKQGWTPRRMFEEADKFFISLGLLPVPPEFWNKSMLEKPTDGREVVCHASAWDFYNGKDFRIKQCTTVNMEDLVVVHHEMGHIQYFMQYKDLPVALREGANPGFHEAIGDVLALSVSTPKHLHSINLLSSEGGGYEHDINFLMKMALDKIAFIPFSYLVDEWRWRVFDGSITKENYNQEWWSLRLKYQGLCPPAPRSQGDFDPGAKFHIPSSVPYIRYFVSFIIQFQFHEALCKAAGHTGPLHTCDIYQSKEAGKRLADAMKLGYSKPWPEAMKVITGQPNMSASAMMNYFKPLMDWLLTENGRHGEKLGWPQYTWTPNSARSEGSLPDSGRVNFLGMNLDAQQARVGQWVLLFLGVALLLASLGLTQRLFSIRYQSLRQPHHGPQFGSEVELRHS
Experimental: The ACE-inhibitory activity of the peptides was measured according to a previously reported method. Briefly, 50 μL of the peptide solution, prepared in borate buffer (pH 8.3) containing 0.3 mol/L NaCl, was mixed with 100 μL of HHL (5.82 mmol/L) prepared in the same buffer. After incubation at 37 °C for 5 min, the reaction was initiated by adding 15 μL of ACE solution (0.1 U/mL), also prepared in the borate buffer described above. The mixture was then incubated at 37 °C for 30 min and terminated by adding 150 μL of 1 mol/L HCl. For the blank control, the same procedure was performed using 50 μL of the borate buffer instead of the peptide solution.
The released hippuric acid (HA) was quantified using an Elite P3200 high-performance liquid chromatography (HPLC) system (Dalian Elite Analytical Instruments Co., Ltd., Dalian, China) equipped with a C18 reversed-phase column (Waters, Milford, MA, USA; 150 mm × 4.6 mm, 5 μm) at a detection wavelength of 228 nm. The mobile phase consisted of solvent A (water containing 0.05% trifluoroacetic acid) and solvent B (acetonitrile) in a ratio of 75:25 (v/v). […]
The ACE inhibition rate (%) was calculated using the following equation:(1) ACE Inhibitory rate%=Ablank−Asample/Ablank×100 where Ablank is the peak area of HA in the blank control test, and Asample is the peak area of HA in the sample test. […]

[7] = test system: EA.hy926 cells; test: MTT cytotoxicity assay; settings: EA.hy926, 24 h, 0.0625 to 1 mg/mL; ISO 10993-5 limit: viability above 70%
Experimental: Cell culture. EA.hy926 endothelial cells were cultured in high-glucose Dulbecco’s Modified Eagle Medium (DMEM) supplemented with 10% fetal bovine serum (FBS) and 1% penicillin–streptomycin. Cells were maintained in a humidified incubator at 37 °C with 5% CO2. When cell confluence reached approximately 70–80%, subculturing was performed for subsequent experiments.
Cytotoxicity assay. The cytotoxicity of the peptides was evaluated using the MTT assay [29]. […] After incubation at 37 °C for 4 h, the supernatant was carefully removed, and 150 μL of DMSO was added to dissolve the formazan crystals. The plate was shaken for 10 min, and the absorbance was measured at 490 nm using a microplate reader.

[8] = test system: endothelial cells; design: method as in PMID 37501259; settings: Ang II-treated endothelial cells, cited from earlier work
[9] = test system: endothelial cells; settings: 48 h of treatment; 129% in the Ang II group; cited from earlier work
From the text: All three concentrations produced highly similar su ...

OO [H2O2, hydrogen peroxide]
SOD activity ([1]; 500 μmol/L H2O2 alone, control 126.15 ± 9.22): 67.47 ± 9.93 U/mg prot | GSH-Px activity ([2]; 500 μmol/L H2O2 alone, control 165.92 ± 5.21): 119.49 ± 3.94 U/mg prot

C[C@H](CS)C(=O)N1CCC[C@H]1C(=O)O [captopril]
SOD improvement ([1]; captopril, vs H2O2 group): 70.9% | Migration rate ([3]; 6 h, captopril 0.2 mg/mL, Ang II-induced, Ang II alone 42.44): 25.77 ± 2.49% | Migration rate ([3]; 24 h, captopril 0.2 mg/mL, Ang II-induced, Ang II alone 89.68): 57.52 ± 1.92% | ET-1 content ([4]; captopril after Ang II, control 13.82, Ang II 15.65): 12.70 ± 0.48 pg/mg prot | NO level ([5]; captopril after Ang II, control 109.8, Ang II 58.95): 97.86 ± 4.47 μmol/g prot | GSH-Px improvement ([2]; captopril, vs H2O2 group): 38.8%

Angiotensin II (DRVYIHPF; Angiotensin-2; UniProt P01019 25-32, looked up) [Ang II, used to induce endothelial dysfunction]
Migration rate ([3]; 6 h, Ang II 1 μmol/L alone, control 35.95 ± 1.08%): 42.44 ± 2.12% | Migration rate ([3]; 24 h, Ang II 1 μmol/L alone, control 79.33 ± 0.48%): 89.68 ± 1.47% | ET-1 content ([4]; Ang II 1 μmol/L alone, control 13.82 ± 0.69): 15.65 ± 0.83 pg/mg prot | NO level ([5]; Ang II 1 μmol/L alone, control 109.8 ± 3.93): 58.95 ± 4.31 μmol/g prot

FDVDRW [RJP-derived peptide; synthesized]
ACE-inhibitory activity in vitro (comparison in words) [6]: PYPDWSFAK and RPYPDWSF exhibited significantly higher ACE-inhibitory activity in vitro than FDVDRW and QWHDKIF

PYPDWSFAK [PYPDWSFAK]
Cytotoxicity [7]: non-cytotoxic

QWHDKIF [RJP-derived peptide; synthesized]
ACE-inhibitory activity in vitro (comparison in words) [6]: PYPDWSFAK and RPYPDWSF exhibited significantly higher ACE-inhibitory activity in vitro than FDVDRW and QWHDKIF

SPIH [soybean protein-derived peptide]
NO content ([8]; 31.4 ± 0.7 before): 43.7 ± 0.1 µmol/L | NO increase [8]: 39.3% | Endothelial wound healing [9]: 92%

Source: article PMC12785803, “Novel ACE-Inhibitory Peptides from Royal Jelly Proteins: Comprehensive Screening, Mechanistic Insights, and Endothelial Protection” (Foods, 2025)
